From PMC9774391 (ACS Omega, 2022)

How the values were obtained:
Beta Amyloid 1–42 (Aβ42) = target: T1, Beta Amyloid 1–42 (Aβ42) (Homo sapiens, UniProt P05067); test: Beta Amyloid 1–42 (Aβ42) inhibitor screening assay; type: biochemical; conditions: read-out: % β-amyloid plaque inhibition; for inhibition at 100 µM: 10^–4 M
T1 construct: The Beta Amyloid 1–42 (Aβ42) Ligand Screening Assay kit; purchased BioVision, Milpitas, CA
Description: The Beta Amyloid 1–42 (Aβ42) Ligand Screening Assay kit (BioVision, Milpitas, CA) technique based on the fluorometric approach served as the basis for the experimental process.[21],[28],[29]

MAO-B = target: T2, MAO-B (Homo sapiens, UniProt P27338); test: In vitro MAO-B inhibition assay (fluorometric); type: biochemical; conditions: for inhibition at 1000 µM: 10^–3 M; for inhibition at 100 µM: 10^–4 M; for inhibition at 10 µM: 10^–5 M; for inhibition at 1 µM: 10^–6 M; for inhibition at 0.1 µM: 10^–7 M; for inhibition at 0.01 µM: 10^–8 M; for inhibition at 0.001 µM: 10^–9 M
T2 sequence (P27338 1-520): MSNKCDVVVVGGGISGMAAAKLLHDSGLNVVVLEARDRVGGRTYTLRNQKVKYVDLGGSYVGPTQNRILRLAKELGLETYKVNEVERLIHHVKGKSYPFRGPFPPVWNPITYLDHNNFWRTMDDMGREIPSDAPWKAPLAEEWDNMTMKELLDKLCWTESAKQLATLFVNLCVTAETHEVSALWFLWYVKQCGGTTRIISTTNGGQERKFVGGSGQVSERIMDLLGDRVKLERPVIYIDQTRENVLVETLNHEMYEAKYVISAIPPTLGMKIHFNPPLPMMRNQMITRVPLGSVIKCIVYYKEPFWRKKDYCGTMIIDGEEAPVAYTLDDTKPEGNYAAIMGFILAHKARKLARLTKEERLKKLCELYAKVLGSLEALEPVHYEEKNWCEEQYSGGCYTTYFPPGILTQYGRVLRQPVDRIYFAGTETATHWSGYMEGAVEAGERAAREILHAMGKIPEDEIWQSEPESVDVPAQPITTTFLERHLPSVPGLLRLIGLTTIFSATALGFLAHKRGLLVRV

Cytotoxicity test (MTT) = type: cell-based; conditions: NIH/3T3 mouse embryonic fibroblast cells (ATCC CRL-1658), NIH/3T3 mouse fibroblast healthy cell line
Experimental: The NIH/3T3 cells were incubated according to the manufacturer’s recommendations. In 96-well plates, NIH/3T3 cells were seeded at a density of 1 × 10^4 cells per well. The MTT test was conducted in line with the previously mentioned standards.[19],[22],[23],[28],[30]

AChE = AChE (Homo sapiens, UniProt P22303); test: biochemical; conditions: for inhibition at 1000 µM: 10^–3 M; for inhibition at 100 µM: 10^–4 M; for inhibition at 10 µM: 10^–5 M; for inhibition at 1 µM: 10^–6 M; for inhibition at 0.1 µM: 10^–7 M; for inhibition at 0.01 µM: 10^–8 M; for inhibition at 0.001 µM: 10^–9 M
AChE, sequence (P22303 32-614): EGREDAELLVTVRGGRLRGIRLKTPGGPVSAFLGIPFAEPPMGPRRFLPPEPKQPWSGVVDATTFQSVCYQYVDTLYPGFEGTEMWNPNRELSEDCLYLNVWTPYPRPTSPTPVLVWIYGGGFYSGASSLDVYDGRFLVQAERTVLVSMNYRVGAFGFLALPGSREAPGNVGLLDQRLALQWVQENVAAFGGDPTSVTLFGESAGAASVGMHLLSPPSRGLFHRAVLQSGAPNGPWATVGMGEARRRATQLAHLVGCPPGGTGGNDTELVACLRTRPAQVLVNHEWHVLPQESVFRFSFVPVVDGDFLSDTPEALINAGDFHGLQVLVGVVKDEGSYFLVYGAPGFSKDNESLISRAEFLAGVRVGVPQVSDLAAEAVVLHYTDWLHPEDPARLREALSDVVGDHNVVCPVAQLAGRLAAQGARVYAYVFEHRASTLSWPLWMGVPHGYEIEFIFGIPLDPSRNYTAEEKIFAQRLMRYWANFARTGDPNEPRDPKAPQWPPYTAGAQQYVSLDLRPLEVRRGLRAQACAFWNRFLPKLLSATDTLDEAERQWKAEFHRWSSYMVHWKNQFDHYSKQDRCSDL
Experimental: (§1) According to the modified Ellman approach outlined in our team’s earlier work, the AChE and BChE inhibitory activities of the obtained compounds were evaluated.[18]−[21]

BChE = BChE (Homo sapiens, UniProt P06276); test: biochemical; conditions: for inhibition at 1000 µM: 10^–3 M; for inhibition at 100 µM: 10^–4 M
BChE, sequence (P06276 29-602): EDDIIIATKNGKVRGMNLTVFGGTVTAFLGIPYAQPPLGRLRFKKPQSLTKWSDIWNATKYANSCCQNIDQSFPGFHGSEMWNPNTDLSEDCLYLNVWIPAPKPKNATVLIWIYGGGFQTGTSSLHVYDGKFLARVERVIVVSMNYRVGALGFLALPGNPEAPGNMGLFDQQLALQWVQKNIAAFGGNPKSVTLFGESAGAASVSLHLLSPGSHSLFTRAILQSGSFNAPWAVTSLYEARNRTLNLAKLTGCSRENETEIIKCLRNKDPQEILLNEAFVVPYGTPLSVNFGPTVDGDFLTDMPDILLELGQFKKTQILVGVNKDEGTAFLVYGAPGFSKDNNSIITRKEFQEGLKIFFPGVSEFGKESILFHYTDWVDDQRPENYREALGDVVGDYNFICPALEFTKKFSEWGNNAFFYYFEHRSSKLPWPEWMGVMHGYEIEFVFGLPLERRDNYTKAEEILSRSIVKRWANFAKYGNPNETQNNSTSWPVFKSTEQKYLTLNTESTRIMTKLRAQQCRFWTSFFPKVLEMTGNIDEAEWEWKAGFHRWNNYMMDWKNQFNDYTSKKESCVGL
Experimental: as §1

MAO-A = target: T3, MAO-A (Homo sapiens, UniProt P21397); test: In vitro MAO-A inhibition assay (fluorometric); type: biochemical; conditions: for inhibition at 1000 µM: 10^–3 M; for inhibition at 100 µM: 10^–4 M
T3 sequence (P21397 1-527): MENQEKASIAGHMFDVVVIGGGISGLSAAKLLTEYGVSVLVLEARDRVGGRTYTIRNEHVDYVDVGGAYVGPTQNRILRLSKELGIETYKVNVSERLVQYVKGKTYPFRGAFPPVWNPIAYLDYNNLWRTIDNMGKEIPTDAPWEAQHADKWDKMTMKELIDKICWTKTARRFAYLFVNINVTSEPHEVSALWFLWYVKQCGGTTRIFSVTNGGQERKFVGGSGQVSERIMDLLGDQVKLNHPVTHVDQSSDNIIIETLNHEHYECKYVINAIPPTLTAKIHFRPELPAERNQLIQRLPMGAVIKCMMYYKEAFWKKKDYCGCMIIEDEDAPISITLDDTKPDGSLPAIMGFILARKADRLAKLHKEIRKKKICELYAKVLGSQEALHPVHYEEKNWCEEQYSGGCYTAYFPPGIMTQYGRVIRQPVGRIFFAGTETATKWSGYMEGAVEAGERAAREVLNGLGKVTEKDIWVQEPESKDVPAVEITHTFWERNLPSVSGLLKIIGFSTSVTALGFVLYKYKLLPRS

[1] = DPPH free-radical scavenging activity assay; conditions: for IC50: serial dilution 10^–3–10^–9 M, read-out: IC50 on DPPH antioxidant activity
Experimental: This approach is based on evaluating the free-radical scavenging abilities of the stable 1,1-diphenyl-2-picrylhydrazyl (DPPH) radical. To create the DPHH solution, 9.86 mg of DPPH was weighed and diluted to 25 mL with methanol. The test wells were then filled with 100 μL of the DPPH solution and 100 μL of the test solutions. Only 200 μL of methanol was used for the blank reading, while the control reading required the usage of 100 μL each of methanol and the DPPH solution. Following incubation, a spectrophotometric measurement at 517 nm was carried out.[26],[27]

T1 sequence (P05067 672-713 limits assumed): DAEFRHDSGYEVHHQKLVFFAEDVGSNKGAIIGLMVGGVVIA

Structure (SMILES)	inhibition at 100 µM (Beta Amyloid 1–42 (Aβ42)) [%]	inhibition at 1000 µM (MAO-B) [%]	inhibition at 100 µM (MAO-B) [%]	IC50 (Cytotoxicity test (MTT)) [nM]	IC50 (AChE) [nM]	inhibition at 1000 µM (AChE) [%]	inhibition at 100 µM (AChE) [%]	inhibition at 10 µM (AChE) [%]	inhibition at 1 µM (AChE) [%]	inhibition at 0.1 µM (AChE) [%]	inhibition at 0.01 µM (AChE) [%]	inhibition at 0.001 µM (AChE) [%]	inhibition at 1000 µM (BChE) [%]	inhibition at 100 µM (BChE) [%]	inhibition at 1000 µM (MAO-A) [%]	inhibition at 100 µM (MAO-A) [%]	other results
COc1ccc2c(c1)C(=O)/C(=C/c1ccc(NC(=O)CN3CCN(CCN(C)C)CC3)cc1)C2 [D23]	> 50	81.3 ± 1.05	43.2 ± 0.884	2150 ± 127	51 ± 1.4	92.5 ± 1.57	87.6 ± 1.68	82.4 ± 1.21	70.1 ± 1.06	68.9 ± 0.945	35.5 ± 0.518	20.6 ± 0.418	99 ± 1.68	41.5 ± 0.741	78.2 ± 0.969	22.9 ± 0.497	–
COc1cc2c(cc1OC)C(=O)/C(=C/c1ccc(NC(=O)CN(C)CCN(C)C)cc1)C2 [D36]	–	84.6 ± 1.01	45.2 ± 0.584	3620 ± 129	235 ± 11.3	91.9 ± 1.47	86.6 ± 1.57	78.6 ± 1.03	58.8 ± 0.893	38.2 ± 0.539	33.1 ± 0.491	20.6 ± 0.374	100 ± 1.25	41 ± 0.608	82.4 ± 0.873	43 ± 0.771	IC50 [1]: 251 ± 10 nM
COc1ccc2c(c1)C/C(=C\c1ccc(NC(=O)CN3CCN(CCN(C)C)CC3)cc1)C2=O [D22]	> 50	85.3 ± 0.957	48.6 ± 0.605	32500 ± 523	52.7 ± 1.6	91.9 ± 1.47	86.6 ± 1.57	79 ± 1.17	70.4 ± 1.07	63.4 ± 0.988	43 ± 0.633	18.8 ± 0.521	99.5 ± 1.23	39.5 ± 0.97	76.9 ± 0.232	37.5 ± 0.411	–
CCN(CC)CCN(CC)CC(=O)Nc1ccc(/C=C2\Cc3cc(OC)ccc3C2=O)cc1 [D40]	–	–	88.8 ± 1.3	6870 ± 297	–	81.3 ± 1.11	41.6 ± 0.995	–	–	–	–	–	95.1 ± 1.24	44.3 ± 0.642	84.3 ± 1.27	41.3 ± 0.577	IC50 (MAO-B): 203 ± 9.8 nM; inhibition at 10 µM (MAO-B): 80.6 ± 1.48%; inhibition at 1 µM (MAO-B): 65.2 ± 0.975%; inhibition at 0.1 µM (MAO-B): 43.1 ± 0.662%; inhibition at 0.01 µM (MAO-B): 25.7 ± 0.425%; inhibition at 0.001 µM (MAO-B): 19.9 ± 0.365%
CCN(CC)CCN(CC)CC(=O)Nc1ccc(/C=C2\Cc3ccc(OC)cc3C2=O)cc1 [D41]	–	90.2 ± 1.36	81.8 ± 1.29	5890 ± 119	–	81 ± 1.6	36.6 ± 0.399	–	–	–	–	–	99.15 ± 0.704	46.3 ± 1.37	82.8 ± 2.12	22.5 ± 0.622	IC50 (MAO-B): 209 ± 9.5 nM; inhibition at 10 µM (MAO-B): 73.3 ± 1.42%; inhibition at 1 µM (MAO-B): 65.4 ± 0.975%; inhibition at 0.1 µM (MAO-B): 42.2 ± 0.563%; inhibition at 0.01 µM (MAO-B): 32.7 ± 0.427%; inhibition at 0.001 µM (MAO-B): 21.5 ± 0.385%
COc1cc(/C=C/C(=O)CC(=O)/C=C/c2ccc(O)c(OC)c2)ccc1O [curcumin, reference compound]	88.2 ± 2.17	–	–	–	–	–	–	–	–	–	–	–	–	–	–	–	inhibition at 1000 µM (Beta Amyloid 1–42 (Aβ42); 10^–3 M): 95.9 ± 1.97%
O=C1O[C@H]([C@@H](O)CO)C(O)=C1O [ascorbic acid, reference compound]	–	–	–	–	–	–	–	–	–	–	–	–	–	–	–	–	% DPPH free-radical scavenging (antioxidant) activity ([1]; 10^–3 M): 98.75% ± 1.67; % DPPH free-radical scavenging (antioxidant) activity ([1]; 10^–4 M): 95.22% ± 1.47; IC50 [1]: 165 ± 7 nM
